Experimental data as given in patent publication US5488051A, “Substituted 5,6-dihydro-5-oxo-1,4-dithiino-(2,3-d)-pyridazine-2,3-dicarbonitriles, compositions containing them and their use as antimicrobials” (The Dow Chemical Company, priority 1994, dated 1996).
≈ marks a conversion by molar mass, not a printed value. Like-named read-outs stand apart in the source and are kept apart here.

What was measured:
[1] = test system: Candida albicans (Ca); test: MIC for Candida albicans, malt yeast agar; assay type: cell-based, Candida albicans ATCC 10231; conditions: malt yeast agar; 30° C., 48 hours for yeast; read-out: Minimum Inhibitory Concentration (MIC), Ca
Protocol: (§1) The minimum inhibitory concentration (MIC) for the compounds listed in Table I is determined for 9 bacteria, using nutrient agar; and 7 yeast and fungi, using malt yeast agar. A one percent solution of the test compound is prepared in a mixture of acetone and water.
(§2) Malt yeast agar is prepared by adding 3 g yeast extract and 45 g malt agar per liter of deionized water. The specific agar is dispensed in 30 mL aliquots into 25×200 mm test tubes, capped and autoclaved for 15 minutes at 115° C.
(§3) The test tubes containing the malt yeast agar and the nutrient agar are cooled in a water bath until the temperature of the agar is 48° C. Then, an appropriate amount of the one percent solution of the test compound is added (except in the controls where no compound is added) to the respective test tubes so that the final concentrations are zero (0), 1.0, 2.5, 5, 10, 25, 50, 100, 250 and 500 parts per million of the test compound in each of the respective type of agar. The contents of each of the test tubes are then transferred to separate petri plates. After drying for 24 hours, the petri plates containing nutrient agar are inoculated with bacteria and those containing malt yeast agar are inoculated with yeast and fungi.
(§4) The inoculation with the yeast and fungi is accomplished as follows. Cultures of yeast and fungi are incubated for seven days on malt yeast agar at 30° C. These cultures are used to prepare suspensions by the following procedure. A suspension of each organism is prepared by adding 10 mL of sterile saline and 10 microliters of octylphenoxy polyethoxy ethanol to the agar slant of yeast or fungi. The sterile saline/octylphenoxy polyethoxy ethanol solution is then agitated with a sterile swab to suspend the microorganism grown on the slant. Each resulting suspension is diluted into sterile saline (1 part suspension: 9 parts sterile saline). Aliquots of these dilutions are placed in individual wells of Steer's Replicator and petri plates inoculated as previously described. The petri plates are incubated at 30° C. and read after 48 hours for yeast and 72 hours for fungi.
(§5) Table II list the bacteria, yeast and fungi used in the MIC test described above along with their respective American Type Culture Collection (ATCC) identification numbers.

[2] = test system: Klebsiella pneumonias (Kp); test: MIC for Klebsiella pneumonias, nutrient agar; assay type: cell-based, Klebsiella pneumonias ATCC 8308; conditions: 30° C., 48 hours, read-out: Minimum Inhibitory Concentration (MIC), Kp
Protocol: as §1
(§6) Nutrient agar is prepared at pH 6.8, representing a neutral medium, and at pH 8.2, representing an alkaline medium. The nutrient agars are prepared by adding 23 g of nutrient agar to one-liter of deionized water. In addition, the alkaline medium is prepared by adjusting a 0.04M solution of N-[tris-(hydroxymethyl)methyl]-glycine buffered deionized water with concentrated sodium hydroxide to a pH of 8.5.
as §3
(§7) The inoculation with bacteria is accomplished by using the following procedure. Twenty-four hour-cultures of each of the bacteria are prepared by incubating the respective bacteria in tubes containing nutrient broth for 24 hours at 30° C. in a shaker. Dilutions of each of the 24 hour-cultures are made so that nine separate suspensions (one for each of the nine test bacteria) are made, each containing 10^8 colony forming units (CFU) per mL of suspension of a particular bacteria. Aliquots of 0.3 mL of each of the bacterial suspensions are used to fill the individual wells of Steer's Replicator. For each microbial suspension, 0.3 mL was used to fill three wells (i.e., three wells of 0.3 mL each) so that for the nine different bacteria, 27 wells are filled. The Steer's Replicator is then used to inoculate both the neutral and alkaline pH nutrient agar petri plates.
(§8) The inoculated petri plates are incubated at 30° C. for 48 hours and then read to determine if the test compound which is incorporated into the agar prevented growth of the respective bacteria.
as §5

[3] = test system: Enterobacter aerogenes (Ea); test: MIC for Enterobacter aerogenes, nutrient agar; assay type: cell-based, Enterobacter aerogenes ATCC 13048; conditions: Klebsiella aerogenes, nutrient agar, 30° C., 48 hours, read-out: Minimum Inhibitory Concentration (MIC), Ea
Protocol: as §1, §6, §3, §7, §8, §5

[4] = test system: Salmonella choleraesuis; test: MIC for Salmonella choleraesuis, nutrient agar; assay type: cell-based, Salmonella choleraesuis ATCC 10708; conditions: Salmonella enterica, 30° C., 48 hours, read-out: Minimum Inhibitory Concentration (MIC), SC
Protocol: as §1, §6, §3, §7, §8, §5

[5] = test system: Saccharomyces cerevisiae; test: MIC for Saccharomyces cerevisiae, malt yeast agar; assay type: cell-based, Saccharomyces cerevisiae ATCC 4105; conditions: malt yeast agar, 30° C., 48 hours for yeast, read-out: Minimum Inhibitory Concentration (MIC), Sc
Protocol: as §1, §2, §3, §4, §5

[6] = test system: Aureobasidium pullulan (Ap); test: MIC for Aureobasidium pullulan, malt yeast agar; assay type: cell-based, Aureobasidium pullulan ATCC 16622; conditions: malt yeast agar; 30° C.; 48 hours for yeast and 72 hours for fungi; read-out: Minimum Inhibitory Concentration (MIC), Ap
Protocol: as §1, §2, §3, §4, §5

[7] = test system: Trichoderma viride (Tv); test: MIC for Trichoderma viride, malt yeast agar; assay type: cell-based, Trichoderma viride ATCC 8678; conditions: malt yeast agar; 30° C., 72 hours for fungi; read-out: Minimum Inhibitory Concentration (MIC), Tv
Protocol: as §1, §2, §3, §4, §5

[8] = test system: Escherichia coli (Ec); test: MIC for Escherichia coli, nutrient agar; assay type: cell-based, Escherichia coli ATCC 11229; conditions: 30° C., 48 hours, read-out: Minimum Inhibitory Concentration (MIC), Ec
Protocol: as §1, §6, §3, §7, §8, §5

[9] = test system: Bacillus subtilis (Bs); test: MIC for Bacillus subtilis, nutrient agar; assay type: cell-based, Bacillus subtilis ATCC 8473; conditions: 30° C., 48 hours, read-out: Minimum Inhibitory Concentration (MIC), Bs
Protocol: as §1, §6, §3, §7, §8, §5

[10] = test system: Pseudomonas aeruginosa (PRD-10); test: MIC for Pseudomonas aeruginosa PRD-10, nutrient agar; assay type: cell-based, Pseudomonas aeruginosa ATCC 15442; conditions: 30° C., 48 hours, read-out: Minimum Inhibitory Concentration (MIC), PRD
Protocol: as §1, §6, §3, §7, §8, §5

[11] = test system: Proteus vulgaris (Pv); test: MIC for Proteus vulgaris, nutrient agar; assay type: cell-based, Proteus vulgaris ATCC 881; conditions: 30° C., 48 hours, read-out: Minimum Inhibitory Concentration (MIC), Pv
Protocol: as §1, §6, §3, §7, §8, §5

[12] = test system: Pseudomonas aeruginosa (Pa); test: MIC for Pseudomonas aeruginosa, nutrient agar; assay type: cell-based, Pseudomonas aeruginosa ATCC 10145; conditions: 48 hours, read-out: Minimum Inhibitory Concentration (MIC), Pa
Protocol: as §1, §6, §3, §7, §8, §5

[13] = test system: Aspergillus niger (An); test: MIC for Aspergillus niger, malt yeast agar; assay type: cell-based, Aspergillus niger ATCC 16404; conditions: malt yeast agar; 30° C., 72 hours for fungi; read-out: Minimum Inhibitory Concentration (MIC), An
Protocol: as §1, §2, §3, §4, §5

[14] = test system: Staphylococcus aureus (Sa); test: MIC for Staphylococcus aureus, nutrient agar; assay type: cell-based, Staphylococcus aureus ATCC 6538; conditions: 30° C., 48 hours, read-out: Minimum Inhibitory Concentration (MIC), Sa
Protocol: as §1, §6, §3, §7, §8, §5

[15] = test system: Fusarium oxysporum (Fo); test: MIC for Fusarium oxysporum, malt yeast agar; assay type: cell-based, Fusarium oxysporum ATCC 48112; conditions: malt yeast agar; 30° C., 72 hours for fungi; read-out: Minimum Inhibitory Concentration (MIC), Fo
Protocol: as §1, §2, §3, §4, §5

[16] = test system: Penicillium chrysogenum (Pc); test: MIC for Penicillium chrysogenum, malt yeast agar; assay type: cell-based, Penicillium chrysogenum ATCC 9480; conditions: malt yeast agar; 30° C., 72 hours for fungi; read-out: Minimum Inhibitory Concentration (MIC), PC
Protocol: as §1, §2, §3, §4, §5

SMILES	MIC [1]	MIC ([2]; pH 6.8, nutrient agar)	MIC ([2]; pH 8.2, nutrient agar)	MIC ([3]; pH 6.8)	MIC ([3]; pH 8.2)	MIC ([4]; pH 6.8, nutrient agar)	MIC ([4]; pH 8.2, nutrient agar)	MIC [5]	MIC [6]	MIC [7]	MIC ([8]; pH 6.8, nutrient agar)	MIC ([8]; pH 8.2, nutrient agar)	MIC ([9]; pH 6.8, nutrient agar)	MIC ([9]; pH 8.2, nutrient agar)	MIC ([10]; pH 6.8, nutrient agar)	MIC ([10]; pH 8.2, nutrient agar)	MIC ([11]; pH 6.8, nutrient agar)	MIC ([11]; pH 8.2, nutrient agar)	MIC ([12]; pH 8.2, 30° C.)	MIC [13]	also measured
N#CC1=C(C#N)Sc2c(cnn(-c3cccc(Cl)c3)c2=O)S1 [E, 5,6-dihydro-6-(3-chlorophenyl)-5-oxo-1,4-dithiino-(2,3-d)-pyridazine-2,3-dicarbonitrile]	25 µg/mL (≈ 72.5 µM)	> 500 µg/mL	> 500 µg/mL	> 500 µg/mL	> 500 µg/mL	> 500 µg/mL	> 500 µg/mL	25 µg/mL (≈ 72.5 µM)	25 µg/mL (≈ 72.5 µM)	100 µg/mL (≈ 290 µM)	500 µg/mL (≈ 1450 µM)	> 500 µg/mL	25 µg/mL (≈ 72.5 µM)	250 µg/mL (≈ 725 µM)	> 500 µg/mL	> 500 µg/mL	500 µg/mL (≈ 1450 µM)	> 500 µg/mL	> 500 µg/mL	50 µg/mL (≈ 145 µM)	MIC ([12]; pH 6.8, 30° C.): > 500 µg/mL; MIC ([14]; pH 6.8, nutrient agar): 250 µg/mL (≈ 725 µM); MIC ([14]; pH 8.2, nutrient agar): > 500 µg/mL; MIC [15]: 50 µg/mL (≈ 145 µM); MIC [16]: 25 µg/mL (≈ 72.5 µM)
N#CC1=C(C#N)Sc2c(cnn(-c3ccc(Cl)c(Cl)c3)c2=O)S1 [F, 5,6-dihydro-6-(3,4-dichlorophenyl)-5-oxo-1,4-dithiino-(2,3-d)-pyridazine-2,3-dicarbonitrile]	250 µg/mL (≈ 659 µM)	> 500 µg/mL	> 500 µg/mL	> 500 µg/mL	> 500 µg/mL	> 500 µg/mL	> 500 µg/mL	250 µg/mL (≈ 659 µM)	100 µg/mL (≈ 264 µM)	> 500 µg/mL	> 500 µg/mL	> 500 µg/mL	100 µg/mL (≈ 264 µM)	500 µg/mL (≈ 1320 µM)	> 500 µg/mL	> 500 µg/mL	> 500 µg/mL	> 500 µg/mL	> 500 µg/mL	250 µg/mL (≈ 659 µM)	MIC ([12]; pH 6.8, 30° C.): > 500 µg/mL; MIC ([14]; pH 6.8, nutrient agar): 100 µg/mL (≈ 264 µM); MIC ([14]; pH 8.2, nutrient agar): 250 µg/mL (≈ 659 µM); MIC [15]: 500 µg/mL (≈ 1320 µM); MIC [16]: 250 µg/mL (≈ 659 µM)
N#CC1=C(C#N)Sc2c(cnn(-c3ccc(Cl)cc3Cl)c2=O)S1 [G, 5,6-dihydro-6-(2,4-dichlorophenyl)-5-oxo-1,4-dithiino-(2,3-d)-pyridazine-2,3-dicarbonitrile]	50 µg/mL (≈ 132 µM)	250 µg/mL (≈ 659 µM)	500 µg/mL (≈ 1320 µM)	> 500 µg/mL	> 500 µg/mL	500 µg/mL (≈ 1320 µM)	> 500 µg/mL	50 µg/mL (≈ 132 µM)	50 µg/mL (≈ 132 µM)	250 µg/mL (≈ 659 µM)	250 µg/mL (≈ 659 µM)	> 500 µg/mL	25 µg/mL (≈ 65.9 µM)	250 µg/mL (≈ 659 µM)	500 µg/mL (≈ 1320 µM)	> 500 µg/mL	500 µg/mL (≈ 1320 µM)	> 500 µg/mL	> 500 µg/mL	100 µg/mL (≈ 264 µM)	MIC ([14]; pH 6.8, nutrient agar): 100 µg/mL (≈ 264 µM); MIC ([14]; pH 8.2, nutrient agar): 250 µg/mL (≈ 659 µM); MIC [15]: 100 µg/mL (≈ 264 µM); MIC [16]: 100 µg/mL (≈ 264 µM)
